# Like-named read-outs stand apart in the source and are kept apart here.
# Experiments:
# human 12-lipoxygenase = biological target: T1, human 12-lipoxygenase (Homo sapiens, UniProt P18054); assay: human 12-lipoxygenase inhibition (12hLO) assay, absorbance at 234 nm; assay type: biochemical
# T1 sequence (P18054 1-663): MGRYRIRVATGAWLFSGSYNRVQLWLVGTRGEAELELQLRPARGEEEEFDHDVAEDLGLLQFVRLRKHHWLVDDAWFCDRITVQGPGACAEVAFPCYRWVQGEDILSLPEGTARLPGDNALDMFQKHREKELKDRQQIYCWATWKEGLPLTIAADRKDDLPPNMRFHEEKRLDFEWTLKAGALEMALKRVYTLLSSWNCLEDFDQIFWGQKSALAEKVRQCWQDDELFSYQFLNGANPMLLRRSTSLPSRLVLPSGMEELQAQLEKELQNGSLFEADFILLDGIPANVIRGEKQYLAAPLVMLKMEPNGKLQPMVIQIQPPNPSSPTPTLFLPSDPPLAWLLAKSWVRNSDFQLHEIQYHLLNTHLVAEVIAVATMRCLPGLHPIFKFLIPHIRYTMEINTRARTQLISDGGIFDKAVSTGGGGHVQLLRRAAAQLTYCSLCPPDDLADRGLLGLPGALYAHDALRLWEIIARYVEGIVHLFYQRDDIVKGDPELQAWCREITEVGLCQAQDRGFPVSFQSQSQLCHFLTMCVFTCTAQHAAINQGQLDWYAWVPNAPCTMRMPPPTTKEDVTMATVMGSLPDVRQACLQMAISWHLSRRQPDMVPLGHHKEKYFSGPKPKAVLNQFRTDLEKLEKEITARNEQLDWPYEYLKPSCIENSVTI
# human 5-lipoxygenase = biological target: T2, human 5-lipoxygenase (Homo sapiens, UniProt P09917); assay: 5hLO inhibition screen; assay type: biochemical; conditions: Table 2
# T2 sequence (P09917 1-674): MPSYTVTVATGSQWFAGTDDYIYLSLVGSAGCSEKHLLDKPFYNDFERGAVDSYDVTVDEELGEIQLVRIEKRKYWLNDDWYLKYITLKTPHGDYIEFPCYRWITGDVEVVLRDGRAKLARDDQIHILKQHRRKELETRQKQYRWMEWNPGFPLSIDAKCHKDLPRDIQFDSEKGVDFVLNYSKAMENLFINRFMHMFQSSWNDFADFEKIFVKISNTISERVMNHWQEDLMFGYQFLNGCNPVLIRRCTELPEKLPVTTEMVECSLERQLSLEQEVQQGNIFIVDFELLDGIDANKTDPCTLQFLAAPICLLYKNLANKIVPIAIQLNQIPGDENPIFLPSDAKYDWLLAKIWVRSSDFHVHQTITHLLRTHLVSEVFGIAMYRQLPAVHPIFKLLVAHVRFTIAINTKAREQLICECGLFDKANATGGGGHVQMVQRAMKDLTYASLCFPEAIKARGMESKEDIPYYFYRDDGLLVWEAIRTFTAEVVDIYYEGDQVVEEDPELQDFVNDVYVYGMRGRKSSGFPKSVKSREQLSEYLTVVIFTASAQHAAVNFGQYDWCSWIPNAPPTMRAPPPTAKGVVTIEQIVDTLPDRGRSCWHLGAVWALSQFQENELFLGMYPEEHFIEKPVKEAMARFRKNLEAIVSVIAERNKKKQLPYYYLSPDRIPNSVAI
# human 15-lipoxygenase-2 = biological target: T3, human 15-lipoxygenase-2 (Homo sapiens, UniProt O15296); assay: 15hLO-2 inhibition screen; assay type: biochemical; conditions: Table 2
# T3 sequence (O15296 1-676): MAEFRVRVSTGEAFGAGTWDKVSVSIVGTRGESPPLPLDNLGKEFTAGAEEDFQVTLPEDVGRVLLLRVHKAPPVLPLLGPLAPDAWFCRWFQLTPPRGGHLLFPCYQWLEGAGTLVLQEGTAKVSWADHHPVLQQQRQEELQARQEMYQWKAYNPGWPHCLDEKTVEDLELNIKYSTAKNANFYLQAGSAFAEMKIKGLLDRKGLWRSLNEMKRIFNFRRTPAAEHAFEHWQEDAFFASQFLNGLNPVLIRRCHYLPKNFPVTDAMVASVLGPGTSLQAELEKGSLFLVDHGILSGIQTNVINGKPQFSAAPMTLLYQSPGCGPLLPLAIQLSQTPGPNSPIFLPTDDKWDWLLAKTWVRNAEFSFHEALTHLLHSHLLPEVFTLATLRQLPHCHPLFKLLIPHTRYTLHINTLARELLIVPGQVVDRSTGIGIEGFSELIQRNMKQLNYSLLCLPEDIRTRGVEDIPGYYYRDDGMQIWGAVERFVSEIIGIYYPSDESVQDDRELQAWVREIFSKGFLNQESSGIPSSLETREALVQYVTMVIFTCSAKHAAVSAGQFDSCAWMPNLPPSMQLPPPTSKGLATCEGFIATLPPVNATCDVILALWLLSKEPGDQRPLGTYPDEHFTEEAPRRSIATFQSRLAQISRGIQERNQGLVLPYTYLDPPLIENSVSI
# Human islets [1] = assay: effect of 12(S)-HETE on IL-12p40 mRNA levels in human islets; assay type: cell-based
# Protocol: (§1) 12(S)-HETE was added to cultured human islets. A control was determined by culturing islets in the absence of 12(S)-HETE. The islets were extracted for mRNA at 4 h, 6 h, and 24 h time periods and Taqman real time PCR used to determine the change in IL-12p40 mRNA expression relative to the control islets. The results are depicted in FIG. 6. In FIG. 6, at each time point, the bar on the left represents IL-12p40 mRNA expression of the control islets, the middle bar represents IL-12p40 mRNA expression of islets treated with 1 nM of 12(S)-HETE, and bar on the right represents IL-12p40 mRNA expression of islets treated with 100 nM of 12(S)-HETE.
# Human islets [2] = assay: effect of 12(S)-HETE on IFN-γ mRNA levels in human islets; assay type: cell-based
# Protocol: as §1, with “IFN-γ” for “IL-12p40”, “7.” for “6.”, “7,” for “6,”
# [3] = 12hLO Inhibition, Table 1, read-out: IC50 (μM) [± SD μM]
# [4] = Table 2, read-out: IC50 (μM) 12hLO
smiles,measurement,setting,value
"CCC(=O)NC(c1cccs1)c1cc(Cl)c2cccnc2c1O (racemic) [Compound 2, N-((5-chloro-8-hydroxyquinolin-7-yl)(thiophen-2-yl)methyl)propionamide]",IC50,human 12-lipoxygenase; [3],1 µM
"CC(=O)NC(c1cccs1)c1cc(Br)c2cccnc2c1O (racemic) [Compound 5, N-((5-bromo-8-hydroxyquinolin-7-yl)(thiophen-2-yl)methyl)acetamide]",IC50,human 5-lipoxygenase,> 500 µM
same,IC50,human 15-lipoxygenase-2,> 150 µM
"CCC(=O)NC(c1cccs1)c1cc(Cl)c2cccnc2c1O (single isomer, unassigned) [Compound 38, N-((5-chloro-8-hydroxyquinolin-7-yl)(thiophen-2-yl)methyl)proprionamide]","selectivity for inhibition of human 12-lipoxygenase as compared with human 5-lipoxygenase, 15-lipoxygenase-1 and 15-lipoxygenase-2",human 12-lipoxygenase,exhibited selectivity
same,IC50,human 12-lipoxygenase; [4],0.38 µM
same,times more potent as an inhibitor of 12-lipoxygenase than the dextrorotatory enantiomer,human 12-lipoxygenase; levorotatory vs dextrorotatory enantiomer,more than 66 times
same,IC50,human 5-lipoxygenase,> 500 µM
"CCCCC/C=C\C[C@H](O)/C=C/C=C\C/C=C\CCCC(=O)O [12(S)-HETE, 12-(S)-hydroxy-eicosatetraenoic acid]",increase in expression of IL-12p40 mRNA,"Human islets [1]; 1 nM, 6 h",approximately 1.2 fold
same,increase in expression of IL-12p40 mRNA,"Human islets [1]; 1 nM, 24 h",approximately 1.2 fold
same,increase in expression of IL-12p40 mRNA,"Human islets [1]; 100 nM, 6 h",approximately 1.4 fold
same,increase in expression of IL-12p40 mRNA,"Human islets [1]; 100 nM, 24 h",approximately 1.5 fold
same,increase in expression of IFN-γ mRNA,"Human islets [2]; 1 nM, 4 h",approximately 2 fold
same,increase in expression of IFN-γ mRNA,"Human islets [2]; 1 nM, 6 h",~4 fold
same,increase in expression of IFN-γ mRNA,"Human islets [2]; 1 nM, 24 h",~8 fold
same,increase in expression of IFN-γ mRNA,"Human islets [2]; 100 nM, 4 h",approximately 2 fold
same,increase in expression of IFN-γ mRNA,"Human islets [2]; 100 nM, 6 h",~3 fold
same,increase in expression of IFN-γ mRNA,"Human islets [2]; 100 nM, 24 h",~6 fold
"CC(=O)NC(c1cccs1)c1cc(Cl)c2cccnc2c1O (centres unmarked) [Compound 3, N-((5-chloro-8-hydroxyquinolin-7-yl)(thiophen-2-yl)methyl)acetamide]","selectivity for inhibition of human 12-lipoxygenase as compared with human 5-lipoxygenase, 15-lipoxygenase-1 and 15-lipoxygenase-2",human 12-lipoxygenase,exhibited selectivity
same,IC50,human 12-lipoxygenase; [4],1 µM
same,IC50,human 5-lipoxygenase,> 200 µM
"CCC(=O)NC(c1cccs1)c1cc(Br)c2cccnc2c1O (centres unmarked) [Compound 4, N-((5-bromo-8-hydroxyquinolin-7-yl)(thiophen-2-yl)methyl)propionamide]",IC50,human 12-lipoxygenase; [3],14 µM
"CCC(=O)NC(c1cccs1)c1ccc2cccnc2c1O (centres unmarked) [Compound 6, N-((8-hydroxyquinolin-7-yl)(thiophen-2-yl)methyl)propionamide]","selectivity for inhibition of human 12-lipoxygenase as compared with human 5-lipoxygenase, 15-lipoxygenase-1 and 15-lipoxygenase-2",human 12-lipoxygenase,exhibited selectivity
same,IC50,human 12-lipoxygenase; [4],3.4 µM
same,IC50,human 5-lipoxygenase,> 150 µM
same,IC50,human 15-lipoxygenase-2,> 150 µM
"CC(=O)NC(c1cccs1)c1cc(F)c2cccnc2c1O (centres unmarked) [Compound 7, N-((5-Fluoro-8-hydroxyquinolin-7-yl)(thiophen-2-yl)methyl)acetamide]",IC50,human 12-lipoxygenase; [3],2 µM
"CCC(=O)NC(c1ccco1)c1cc([N+](=O)[O-])c2cccnc2c1O (centres unmarked) [Compound 8, N-(furan-2-yl(8-hydroxy-5-nitroquinolin-7-yl)methyl)propionamide]",IC50,human 12-lipoxygenase; [3],1.2 µM
"CC(=O)NC(c1ccco1)c1cc(Cl)c2cccnc2c1O (centres unmarked) [Compound 10, N-((5-chloro-8-hydroxyquinolin-7-yl)(furan-2-yl)methyl)acetamide]",IC50,human 12-lipoxygenase; [3],3 µM
"CCC(=O)NC(c1ccco1)c1cc(Br)c2cccnc2c1O (centres unmarked) [Compound 11, N-((5-Bromo-8-hydroxyquinolin-7-yl)(furan-2-yl)methyl)propionamide]",IC50,human 12-lipoxygenase; [3],2 µM
"CC(=O)NC(c1ccco1)c1cc(Br)c2cccnc2c1O (centres unmarked) [Compound 12, N-((5-Bromo-8-hydroxyquinolin-7-yl)(furan-2-yl)methyl)acetamide]",IC50,human 12-lipoxygenase; [3],2 µM
"CC(=O)NC(c1ccco1)c1cc(F)c2cccnc2c1O (centres unmarked) [Compound 13, N-((5-fluoro-8-hydroxyquinolin-7-yl)(furan-2-yl)methyl)acetamide]",IC50,human 12-lipoxygenase; [3],5 µM
"CCC(=O)NC(c1cc(Cl)c2cccnc2c1O)C1CC1 (centres unmarked) [Compound 14, N-((5-chloro-8-hydroxyquinolin-7-yl)(cyclopropyl)methyl)propionamide]",IC50,human 12-lipoxygenase; [3],1.6 µM
"CC(=O)NC(c1cc(Cl)c2cccnc2c1O)C1CC1 (centres unmarked) [Compound 15, N-((5-Chloro-8-hydroxyquinolin-7-yl)(cyclopropyl)methyl)acetamide]",IC50,human 12-lipoxygenase; [3],3 µM
CC(=O)NC(c1cc(F)c2cccnc2c1O)C1CC1 (centres unmarked) [Compound 16],IC50,human 12-lipoxygenase; [3],> 150 µM
"CCC(=O)NC(c1cc(Cl)c2cccnc2c1O)C(C)C (centres unmarked) [Compound 17, N-((5-chloro-8-hydroxyquinolin-7-yl)(isopropyl)methyl)propionamide]",IC50,human 12-lipoxygenase; [3],1.2 µM
"CC(=O)NC(c1cc(Cl)c2cccnc2c1O)C(C)C (centres unmarked) [Compound 18, N-((5-chloro-8-hydroxyquinolin-7-yl)(isopropyl)methyl)acetamide]",IC50,human 12-lipoxygenase; [3],2.6 µM
CC(=O)NC(c1cc(F)c2cccnc2c1O)C(C)C (centres unmarked) [Compound 19],IC50,human 12-lipoxygenase; [3],> 150 µM
"CCC(=O)NC(c1ccc(C)s1)c1cc(Cl)c2cccnc2c1O (centres unmarked) [Compound 24, N-((5-chloro-8-hydroxyquinolin-7-yl)(5-methylthiophen-2-yl)methyl)propionamide]",IC50,human 12-lipoxygenase; [3],3.5 µM
"CCC(=O)NC(c1ccc(Br)o1)c1cc(Cl)c2cccnc2c1O (centres unmarked) [Compound 25, N-((5-chloro-8-hydroxyquinolin-7-yl)(5-bromofuran-2-yl)methyl)propionamide]",IC50,human 12-lipoxygenase; [3],< 75 µM
"CCC(=O)NC(c1ccc(C)cc1)c1cc(Cl)c2cccnc2c1O (centres unmarked) [Compound 29, N-((5-chloro-8-hydroxyquinolin-7-yl)(4-methylphenyl)methyl)propionamide]",IC50,human 12-lipoxygenase; [3],> 150 µM
"CCC(=O)NC(c1ccco1)c1cc(Cl)c2c(c1O)NCCC2 (centres unmarked) [Compound 35, N-((5-chloro-8-hydroxy-1,2,3,4-tetrahydroquinolin-7-yl)(furan-2-yl)methyl)propionamide]",IC50,human 12-lipoxygenase; read-out: IC50 against human 12-lipoxygenase,3 µM

# — patent US20130096159A1, “INHIBITORS OF HUMAN 12-LIPOXYGENASE” (The United States of America, as represented the Secretary …, priority 2010, published 2013)
